Structures can show the parent of a compound that is named as a salt.
Key:
[1] = Test G: conversion to active inhibitor in liver microsomes from humans; type: in vitro ADME
Method: (§1) By “prodrug of a thrombin inhibitor”, we include compounds that form a thrombin inhibitor, in an experimentally-detectable amount, and within a predetermined time (e.g. about 1 hour), following oral or parenteral administration (see, for example, Test E below) or, alternatively, following incubation in the presence of liver microsomes (see, for example, Test G below).

[2] = Test G: conversion to active inhibitor in liver microsomes from rats; type: in vitro ADME
Method: as §1

thrombin = thrombin (Homo sapiens, UniProt P00734); assay: Test A: IC50TT; type: biochemical

| Compound | melting point | conversion to the corresponding active inhibitor (free amidine) [1] | conversion to the corresponding active inhibitor (free amidine) [2] | IC50 (thrombin) |
| --- | --- | --- | --- | --- |
| N=C(N)c1cnc(CNC(=O)[C@@H]2CCN2C(=O)[C@H](O)c2cc(Cl)cc(OC(F)F)c2)nc1 (as salt: TFA) [Example 36, Ph(3-Cl)(5-OCHF2)—(R)CH(OH)C(O)-Aze-NH—CH2-((5-amidino)-2-pyrimidinyl)] | 86 to 87 °C |  |  |  |
| CON=C(N)c1ccc(CNC(=O)[C@@H]2CCN2C(=O)[C@H](O)c2cc(Cl)cc(OCCF)c2)cc1 [Example 22, Ph(3-Cl)(5-OCH2CH2F)—(R)CH(OH)C(O)-Aze-Pab(OMe)] |  | converted to the corresponding active inhibitor (free amidine) | converted to the corresponding active inhibitor (free amidine) |  |
| CON=C(N)c1ccc(CNC(=O)[C@@H]2CCN2C(=O)[C@H](O)c2cc(Cl)cc(OC(F)(F)F)c2)cc1 [Example 7, Ph(3-Cl)(5-OCF3)—(R)CH(OH)C(O)-Aze-Pab(OMe)] |  | converted to the corresponding active inhibitor (free amidine) | converted to the corresponding active inhibitor (free amidine) |  |
| CC(C)ON=C(N)c1ccc(CNC(=O)[C@@H]2CCN2C(=O)[C@H](O)c2cc(Cl)cc(OC(F)F)c2)cc1 [Example 45, Ph(3-Cl)(5-OCHF2)—(R)CH(OH)C(O)-Aze-Pab(OiPr)] |  | converted to the corresponding active inhibitor (free amidine) | converted to the corresponding active inhibitor (free amidine) |  |
| CON=C(N)c1ccc(CNC(=O)[C@@H]2CCN2C(=O)[C@H](O)c2cc(Cl)cc(OCC(F)F)c2)cc1 [Example 18, Ph(3-Cl)(5-OCH2CHF2)—(R)CH(OH)C(O)-Aze-Pab(OMe)] |  | converted to the corresponding active inhibitor (free amidine) | converted to the corresponding active inhibitor (free amidine) |  |
| CON=C(N)c1ccc(CNC(=O)[C@@H]2CCN2C(=O)[C@H](O)c2cc(Cl)cc(OCF)c2)cc1 [Example 20, Ph(3-Cl)(5-OCH2F)—(R)CH(OH)C(O)-Aze-Pab(OMe)] |  | converted to the corresponding active inhibitor (free amidine) | converted to the corresponding active inhibitor (free amidine) |  |
| CO/N=C(\N)c1cc(F)c(CNC(=O)[C@@H]2CCN2C(=O)[C@H](O)c2cc(Cl)cc(OC(F)F)c2)c(F)c1 [Example 40, Ph(3-Cl)(5-OCHF2)—(R)CH(OH)C(O)-Aze-Pab(2,6-diF)(OMe)] |  | converted to the corresponding active inhibitor (free amidine) | converted to the corresponding active inhibitor (free amidine) |  |
| CON=C(N)c1ccc(CNC(=O)[C@@H]2CCN2C(=O)[C@H](O)c2cc(Cl)cc(OCC(F)(F)F)c2)cc1 [Example 16, Ph(3-Cl)(5-OCH2CF3)—(R)CH(OH)C(O)-Aze-Pab(OMe)] |  | converted to the corresponding active inhibitor (free amidine) | converted to the corresponding active inhibitor (free amidine) |  |
| CON=C(N)c1ccc(CNC(=O)[C@@H]2CCN2C(=O)[C@H](O)c2cc(Cl)cc(OC(CF)CF)c2)cc1 [Example 24, Ph(3-Cl)(5-OCH(CH2F)2)—(R)CH(OH)C(O)-Aze-Pab(OMe)] |  | converted to the corresponding active inhibitor (free amidine) | converted to the corresponding active inhibitor (free amidine) |  |
| N=C(N)c1cc(F)c(CNC(=O)[C@@H]2CCN2C(=O)[C@H](O)c2cc(Cl)cc(OC(F)F)c2)cc1F [Example 41, Ph(3-Cl)(5-OCHF2)—(R)CH(OH)C(O)-Aze-Pab(2,5-diF)] |  |  |  | < 150 nM |
| CCON=C(N)c1ccc(CNC(=O)[C@@H]2CCN2C(=O)[C@H](O)c2cc(Cl)cc(OC(F)F)c2)cc1 [Example 43, Ph(3-Cl)(5-OCHF2)—(R)CH(OH)C(O)-Aze-Pab(OEt)] |  | converted to the corresponding active inhibitor (free amidine) | converted to the corresponding active inhibitor (free amidine) |  |
| Ph(3-Cl)(5-OCHF2)—(R)CH(OH)C(O)-Aze-Pab(OcBu) [Example 1] |  | converted to the corresponding active inhibitor (free amidine) | converted to the corresponding active inhibitor (free amidine) |  |
| CON=C(N)c1ccc(CNC(=O)[C@@H]2CCN2C(=O)[C@H](O)c2cc(F)cc(OC(F)F)c2)cc1 [Example 26, Ph(3-F)(5-OCHF2)—(R)CH(OH)C(O)-Aze-Pab(OMe)] |  | converted to the corresponding active inhibitor (free amidine) | converted to the corresponding active inhibitor (free amidine) |  |
| Ph(3-Br)(5-OCHF2)—(R)CH(OH)C(O)-Aze-Pab(OMe) [Example 29] |  | converted to the corresponding active inhibitor (free amidine) | converted to the corresponding active inhibitor (free amidine) |  |
| CON=C(N)c1ccc(CNC(=O)[C@@H]2CCCN2C(=O)[C@H](O)c2cc(Cl)cc(OC(F)F)c2)cc1 [Example 33, Ph(3-Cl)(5-OCHF2)—(R)CH(OH)—C(O)-Pro-Pab(OMe)] |  | converted to the corresponding active inhibitor (free amidine) | converted to the corresponding active inhibitor (free amidine) |  |
| N=C(N)c1ccc(CNC(=O)[C@@H]2CCN2C(=O)[C@H](O)c2cc(Cl)cc(OC(F)F)c2)cn1 [Example 34, Ph(3-Cl)(5-OCHF2)—(R)CH(OH)C(O)-Aze-NH—CH2-((2-amidino)-5-pyridinyl)] |  |  |  | < 20 nM |
| N=C(N)c1cc(F)c(CNC(=O)[C@@H]2CCN2C(=O)[C@H](O)c2cc(Cl)cc(OC(F)F)c2)c(F)c1 [Example 39, Ph(3-Cl)(5-OCHF2)—(R)CH(OH)C(O)-Aze-Pab(2.6-diF)] |  |  |  | < 20 nM |
| CON=C(N)c1ccc(CNC(=O)[C@@H]2CCN2C(=O)[C@H](O)c2cc(Cl)cc(OC(F)F)c2)cc1 [Example 12, Ph(3-Cl)(5-OCHF2)—(R)CH(OH)C(O)-Aze-Pab(OMe)] |  | converted to the corresponding active inhibitor (free amidine) | converted to the corresponding active inhibitor (free amidine) |  |
| NC(=NO)c1ccc(CNC(=O)[C@@H]2CCN2C(=O)[C@H](O)c2cc(Cl)cc(OC(F)F)c2)cc1 [Example 2, Ph(3-Cl)(5-OCHF2)—(R)CH(OH)C(O)-Aze-Pab(OH)] |  | converted to the corresponding active inhibitor (free amidine) | converted to the corresponding active inhibitor (free amidine) |  |
| CON=C(N)c1ccc(CNC(=O)[C@@H]2CCN2C(=O)[C@H](CO)c2cc(Cl)cc(OC(F)(F)F)c2)cc1 [Example 11, Ph(3-Cl)(5-OCF3)—(S)CH(CH2OH)C(O)-Aze-Pab(OMe)] |  | converted to the corresponding active inhibitor (free amidine) | converted to the corresponding active inhibitor (free amidine) |  |
| N=C(N)c1cnc(CNC(=O)[C@@H]2CCN2C(=O)[C@H](O)c2cc(Cl)cc(OC(F)F)c2)nc1 [Example 36, Ph(3-Cl)(5-OCHF2)—(R)CH(OH)C(O)-Aze-NH—CH2-((5-amidino)-2-pyrimidinyl)] |  |  |  | < 3500 nM |
| CO/N=C(\N)c1cnc(CNC(=O)[C@@H]2CCN2C(=O)[C@H](O)c2cc(Cl)cc(OC(F)F)c2)nc1 [Example 37, Ph(3-Cl)(5-OCHF2)—(R)CH(OH)C(O)-Aze-NH—CH2-((5-methoxyamidino)-2-pyrimidinyl)] |  | converted to the corresponding active inhibitor (free amidine) | converted to the corresponding active inhibitor (free amidine) |  |
| N=C(N)c1ccc(CNC(=O)[C@@H]2CCN2C(=O)[C@H](O)c2cc(Cl)cc(OC(F)F)c2)cc1F [Example 38, Ph(3-Cl)(5-OCHF2)—(R)CH(OH)C(O)-Aze-Pab(3-F)] |  |  |  | < 150 nM |

From US20060052314A1, “Pharmaceutical combination” (priority 2002, published 2006)
